In patent US20230398130A1, “METHODS AND COMPOSITIONS FOR DIFFERENTIATING STEM CELLS” (Massachusetts Institute of Technology, priority 2020, published 2023):

How the values were obtained:
[1] = tested on: ISC-enriched organoids; assay: Primary screen, 384-well 2.5-D organoid differentiation (ENR+CD, 6 days): basal lysozyme secretion (LYZ.NS); format: cell-based, murine; details: for Dose.FC.LYZ.NS (log 2 fold change, basal lysozyme secretion): vs plate median; for Dose.FC.LYZ.NS: FC vs plate median; for SSMD.LYZ.NS: strictly standardized mean difference
Description: (§1) High-throughput screening.

[2] = tested on: ISC-enriched organoids; assay: Primary screen, 384-well 2.5-D organoid differentiation (ENR+CD, 6 days): carbachol-induced lysozyme secretion (LYZ.S); format: cell-based, murine; details: for Dose.FC.LYZ.S (log 2 fold change, carbachol-induced lysozyme secretion): vs plate median; for Dose.FC.LYZ.S: FC vs plate median; for Z.LYZ.S: standard z score; for SSMD.LYZ.S: strictly standardized mean difference
Description: as §1

[3] = tested on: ISC-enriched organoids; assay: Primary screen, 384-well 2.5-D organoid differentiation (ENR+CD, 6 days, Target Selective Inhibitor Library, vs whole-plate median): ATP (CellTiter-Glo 3D, CTG); details: for Dose.FC.CTG (log 2 fold change, ATP): vs plate median; for Dose.FC.CTG: FC vs plate median; for SSMD.CTG: strictly standardized mean difference
[4] = Dose 0.08 uM, standard z score of FC
[5] = Dose 0.40 uM, standard z score of FC
[6] = Dose 2.00 uM, standard z score of FC
[7] = Dose 10.00 uM, standard z score of FC
[8] = Dose 0.08 uM, primary screen, standard z score
[9] = Dose 0.40 uM, primary screen, standard z score
[10] = Dose 2.00 uM, primary screen, standard z score
[11] = Dose 10.00 uM, primary screen, standard z score
[12] = primary screen, 1st of the 4 dose lines of the treatment (dose not given)
[13] = primary screen, 2nd of the 4 dose lines of the treatment (dose not given)
[14] = primary screen, 3rd of the 4 dose lines of the treatment (dose not given)
[15] = primary screen, 4th of the 4 dose lines of the treatment (dose not given)

CS(=O)(=O)c1ccc(-c2cnc(N)c(C(=O)Nc3ccccc3)n2)cc1 [VE-821]
Z.LYZ.NS (standard z score) ([1]; dose 0.08 uM): 0.924 | Dose.FC.LYZ.NS (log 2 fold change, basal lysozyme secretion) ([1]; dose 0.08 uM): 0.106 | Z.LYZ.NS (standard z score) ([1]; dose 0.40 uM): 0.544 | Dose.FC.LYZ.NS (log 2 fold change, basal lysozyme secretion) ([1]; dose 0.40 uM): 0.063 | Z.LYZ.NS (standard z score) ([1]; dose 2.00 uM): 0.901 | Dose.FC.LYZ.NS (log 2 fold change, basal lysozyme secretion) ([1]; dose 2.00 uM): 0.103 | Z.LYZ.NS (standard z score) ([1]; dose 10.00 uM): −2.475 | Dose.FC.LYZ.NS (log 2 fold change, basal lysozyme secretion) ([1]; dose 10.00 uM): −0.284 | Dose.FC.LYZ.S (log 2 fold change, carbachol-induced lysozyme secretion) ([2]; dose 0.08 uM): 0.130 | Dose.FC.LYZ.S (log 2 fold change, carbachol-induced lysozyme secretion) ([2]; dose 0.40 uM): 0.089 | Dose.FC.LYZ.S (log 2 fold change, carbachol-induced lysozyme secretion) ([2]; dose 2.00 uM): −0.004 | Dose.FC.LYZ.S (log 2 fold change, carbachol-induced lysozyme secretion) ([2]; dose 10.00 uM): −0.429 | Z.CTG (standard z score) ([3]; dose 0.08 uM): 0.508 | Dose.FC.CTG (log 2 fold change, ATP) ([3]; dose 0.08 uM): 0.213 | Z.CTG (standard z score) ([3]; dose 0.40 uM): 0.311 | Dose.FC.CTG (log 2 fold change, ATP) ([3]; dose 0.40 uM): 0.130 | Z.CTG (standard z score) ([3]; dose 2.00 uM): −0.328 | Dose.FC.CTG (log 2 fold change, ATP) ([3]; dose 2.00 uM): −0.137 | Z.CTG (standard z score) ([3]; dose 10.00 uM): −2.006 | Dose.FC.CTG (log 2 fold change, ATP) ([3]; dose 10.00 uM): −0.840

CC1C(=O)OC2C(O)C34C5CC(C(C)(C)C)C36C(OC(=O)C6O)OC4(C(=O)O5)C12O (stereo not drawn) [Ginkgolide B]
Dose.FC.LYZ.NS ([1]; Dose 0.08 uM, ENR+CD, 6 days): 0.041 log 2 fold change | Z.LYZ.NS [1, 4]: 0.353 | Dose.FC.LYZ.NS ([1]; Dose 0.40 uM, ENR+CD, 6 days): 0.109 log 2 fold change | Z.LYZ.NS [1, 5]: 0.950 | Dose.FC.LYZ.NS ([1]; Dose 2.00 uM, ENR+CD, 6 days): 0.061 log 2 fold change | Z.LYZ.NS [1, 6]: 0.528 | Dose.FC.LYZ.NS ([1]; Dose 10.00 uM, ENR+CD, 6 days): −0.037 log 2 fold change | Z.LYZ.NS [1, 7]: −0.326 | Dose.FC.LYZ.S ([2]; Dose 0.08 uM, ENR+CD, 6 days): 0.034 log 2 fold change | Dose.FC.LYZ.S ([2]; Dose 0.40 uM, ENR+CD, 6 days): 0.047 log 2 fold change | Dose.FC.LYZ.S ([2]; Dose 2.00 uM, ENR+CD, 6 days): 0.033 log 2 fold change | Dose.FC.LYZ.S ([2]; Dose 10.00 uM, ENR+CD, 6 days): −0.035 log 2 fold change | Dose.FC.CTG ([3]; Dose 0.08 uM, ENR+CD, 6 days): −0.076 log 2 fold change | Z.CTG [3, 4]: −0.182 | Dose.FC.CTG ([3]; Dose 0.40 uM, ENR+CD, 6 days): 0.034 log 2 fold change | Z.CTG [3, 5]: 0.081 | Dose.FC.CTG ([3]; Dose 2.00 uM, ENR+CD, 6 days): −0.154 log 2 fold change | Z.CTG [3, 6]: −0.369 | Dose.FC.CTG ([3]; Dose 10.00 uM, ENR+CD, 6 days): 0.177 log 2 fold change | Z.CTG [3, 7]: 0.422

S=C=Nc1cccc(NC(=S)NCCCCNC(=S)Nc2cccc(N=C=S)c2)c1 [MRS 2578]
Dose.FC.LYZ.NS ([1]; Dose 0.08 uM, primary screen): 0.116 log 2 fold change | Z.LYZ.NS [1, 4]: 1.011 | Dose.FC.LYZ.NS ([1]; Dose 0.40 uM, primary screen): 0.036 log 2 fold change | Z.LYZ.NS [1, 5]: 0.311 | Dose.FC.LYZ.NS ([1]; Dose 2.00 uM, primary screen): 0.031 log 2 fold change | Z.LYZ.NS [1, 6]: 0.270 | Dose.FC.LYZ.NS ([1]; Dose 10.00 uM, primary screen): 0.032 log 2 fold change | Z.LYZ.NS [1, 7]: 0.276 | Dose.FC.LYZ.S ([2]; Dose 0.08 uM, primary screen): 0.095 log 2 fold change | Dose.FC.LYZ.S ([2]; Dose 0.40 uM, primary screen): 0.067 log 2 fold change | Dose.FC.LYZ.S ([2]; Dose 2.00 uM, primary screen): 0.023 log 2 fold change | Dose.FC.LYZ.S ([2]; Dose 10.00 uM, primary screen): 0.013 log 2 fold change | Dose.FC.CTG ([3]; Dose 0.08 uM, primary screen): −0.142 log 2 fold change | Z.CTG [3, 4]: −0.339 | Dose.FC.CTG ([3]; Dose 0.40 uM, primary screen): 0.061 log 2 fold change | Z.CTG [3, 5]: 0.146 | Dose.FC.CTG ([3]; Dose 2.00 uM, primary screen): −0.159 log 2 fold change | Z.CTG [3, 6]: −0.381 | Dose.FC.CTG ([3]; Dose 10.00 uM, primary screen): −0.228 log 2 fold change | Z.CTG [3, 7]: −0.544

O=C(Nc1cc(C(F)(F)F)cc(C(F)(F)F)c1)c1cc(Cl)ccc1O [IMD 0354]
Dose.FC.LYZ.NS ([1]; Dose 0.08 uM, primary screen): 0.004 log 2 fold change | Z.LYZ.NS [1, 8]: 0.035 | Dose.FC.LYZ.NS ([1]; Dose 0.40 uM, primary screen): 0.101 log 2 fold change | Z.LYZ.NS [1, 9]: 0.880 | Dose.FC.LYZ.NS ([1]; Dose 2.00 uM, primary screen): 0.097 log 2 fold change | Z.LYZ.NS [1, 10]: 0.847 | Dose.FC.LYZ.NS ([1]; Dose 10.00 uM, primary screen): −0.089 log 2 fold change | Z.LYZ.NS [1, 11]: −0.777 | SSMD.LYZ.NS [1, 12]: 0.021 | SSMD.LYZ.NS [1, 13]: 0.439 | SSMD.LYZ.NS [1, 14]: 0.612 | SSMD.LYZ.NS [1, 15]: −0.729 | Dose.FC.LYZ.S ([2]; Dose 0.08 uM, primary screen): −0.047 log 2 fold change | Dose.FC.LYZ.S ([2]; Dose 0.40 uM, primary screen): 0.043 log 2 fold change | Dose.FC.LYZ.S ([2]; Dose 2.00 uM, primary screen): 0.083 log 2 fold change | Dose.FC.LYZ.S ([2]; Dose 10.00 uM, primary screen): −0.128 log 2 fold change | Z.LYZ.S [2, 12]: −0.303 | Z.LYZ.S [2, 13]: 0.281 | Z.LYZ.S [2, 14]: 0.534 | Z.LYZ.S [2, 15]: −0.826 | SSMD.LYZ.S [2, 12]: −0.335 | SSMD.LYZ.S [2, 13]: 0.203 | SSMD.LYZ.S [2, 14]: 0.537 | SSMD.LYZ.S [2, 15]: −0.736 | Dose.FC.CTG ([3]; Dose 0.08 uM, primary screen): −0.007 log 2 fold change | Z.CTG [3, 8]: −0.017 | Dose.FC.CTG ([3]; Dose 0.40 uM, primary screen): 0.117 log 2 fold change | Z.CTG [3, 9]: 0.280 | Dose.FC.CTG ([3]; Dose 2.00 uM, primary screen): 0.076 log 2 fold change | Z.CTG [3, 10]: 0.181 | Dose.FC.CTG ([3]; Dose 10.00 uM, primary screen): −0.480 log 2 fold change | Z.CTG [3, 11]: −1.146 | SSMD.CTG [3, 12]: −0.019 | SSMD.CTG [3, 13]: 0.258 | SSMD.CTG [3, 14]: 0.274 | SSMD.CTG [3, 15]: −0.748
